# According to publication PMC10394516, “The pharmacokinetic profile of brensocatib and its effect on pharmacodynamic biomarkers including NE, PR3, and CatG in various rodent species” (Frontiers in Pharmacology, 2023):
# What was measured:
# Assay type in all cases: in vivo
# [1] = tested on: CatG; assay: PD onset study, bone marrow CatG activity, C57BL/6 mice; conditions: for Percent change from vehicle CatG: bone marrow, 5 mg/kg BID oral
# Description: (§1) A 14-day PD onset study was performed in female C57BL/6 mice dosed BID. Mice were dosed by oral gavage either with vehicle (0 mg/kg) or 5 mg/kg brensocatib (BID; 10 mg/kg/day) for 1, 4, 7, 10, or 14 consecutive days. Plasma was collected from animals during the first 24 h of dosing at 1, 2, 8, 9, 10, and 24 h post the initial dose. Note the 8- and 24-h plasma samples were prior to the afternoon dose and the second day dose (if applicable), respectively. Plasma was used for PK analysis via LC-MS/MS. On prescribed days, animals were sacrificed 16 h post final dose, and the hind bones (femurs and tibias) were collected at necropsy for bone marrow analysis of NSP activities by kinetic enzymatic assays.
# (§2) For the mice, each animal had the femurs and tibias of both hind limbs harvested. For the rat, the femur and tibia from a single hind limb per animal was harvested. Bones were kept on wet ice until processing for bone marrow collection. In brief, bone cutters were used to cut the epiphysis (knobby ends) off the long bones to expose the bone marrow filled cavity. Each bone cavity was then flushed with 5 mL/bone (mouse) or 10 mL/bone (rat) of ice-cold RPMI media through a […] and collected in a 50-mL conical tube. Cells were spun down at 2,500 × g at 4°C for 5 min and the supernatant was aspirated. After which, bone marrow cells were lysed with 1X red blood cell (RBC) lysis buffer (Abcam, ab204733) to eliminate contaminating RBCs and washed with PBS to remove any residual RBC lysis buffer. The resulting white blood cells (WBC) were subsequently lysed with 1% (v/v) Triton X-100 in PBS. Lysates were added to 96-well plates and stored at −80°C until NSP analyses.
# (§3) Bone marrow lysates prepared as described above were diluted and plated onto 96-well assay plates to quantify NSP activities as described previously ([Basso et al., 2022]). Briefly, peptide substrates for NE (N-Methoxysuccinyl-Ala-Ala-Pro-Val-7-amido-4-methylcoumarin; Sigma; St. Louis, MO; Excitation/Emission at 350/450 nm), PR3 ((7-Methoxycoumarin-4-yl)acetyl-lysyl-(picolinoyl)-Tyr-Asp-Ala-Lys-Gly-Asp-N-3-(2-4-dinitrophenyl)-2-3-diaminopropyonyl-NH2); GenScript; Piscataway, NJ; Excitation/Emission at 340/430 nm), and CatG (N-Succinyl-Ala-Ala-Pro-Phe p nitroanilide; Sigma; Absorbance at 405 nm) were added at a final assay concentration of 100 μM, 40 μM, and 200 μM, respectively, and either fluorescence or absorbance was quantified using a Synergy microplate reader (BioTek; Winooski, VT). The specific NSP activity in each sample was calculated as the total activity minus the activity in the presence of a specific NSP inhibitor (if used), including elastase inhibitor (Abcam) for NE, sivelestat (Abcam) for PR3, and cathepsin G inhibitor I (Cayman Chemical; Ann Arbor, MI) for CatG. NSP concentrations were interpolated based on their activities relative to the standard curves created using active human NE protein (Sigma), active human PR3 protein (Sigma), and active human CatG protein (Sigma), respectively. Due to unavailability of commercial mouse and/or rat NE, PR3, and CatG proteins, the corresponding human proteins were used instead since their catalytic ability is considered to be conserved across species. A portion of each cell lysate sample was retained for protein quantification using a Pierce™ BCA Protein Assay Kit (Thermo Fisher). The NSP activities were normalized for the cell lysate protein concentrations.
# (§4) The Pierce™ BCA Protein Assay Kit was used to measure the total protein of the samples after lysis to allow for subsequent normalization. The manufacturer’s instructions for use were followed when performing this assay on a portion of the sample lysates which were diluted in PBS, the same diluent as used for preparation of the standard. Plates were read on the Biotek Synergy plate reader with Gen5 software.
# [2] = tested on: PR3; assay: PD recovery study, bone marrow PR3 activity, C57BL/6 mice; conditions: for Percent change from vehicle PR3: bone marrow
# Description: (§5) A PD recovery study was performed in female C57BL/6 mice dosed BID for 8 consecutive days. Mice were dosed by oral gavage either with vehicle (0 mg/kg) or 5 mg/kg brensocatib (BID; 10 mg/kg/day). After 8 consecutive days of dosing, the animals were maintained without further treatment until prescribed sacrifice (days: 1, 3, 6, 8, and 10 days post final dose). Plasma was collected from animals during the first 24 h of dosing at −0.5 (half-hour prior to dosing), 1, 8, 9, and 24 h post initial dose. Note that the 8- and 24-h plasma samples were prior to the afternoon dose and prior to the second day dose, respectively. Plasma was used for PK analysis via LC-MS/MS. On prescribed days, animals were sacrificed, and the hind limb bones (femurs and tibias) were collected at necropsy for bone marrow analysis of NSP activities by kinetic enzymatic assays.
# as §2, §3, §4
# [3] = tested on: NE; assay: PD onset study, bone marrow NE activity, C57BL/6 mice; conditions: for Percent change from vehicle NE: bone marrow, 5 mg/kg BID oral
# Description: as §1, §2, §3, §4
# [4] = tested on: NSPs (NE, PR3, CatG); assay: PD recovery study, bone marrow NSP activities (all three NSPs), C57BL/6 mice; conditions: after 8 days of 5 mg/kg BID
# Description: as §5, with “On prescribed days, animals were sacrificed, and the hind limb bones (femurs and tibias) were collected at necropsy for bone marrow analysis of NSP activities by kinetic enzymatic assays.” left out
# Bone marrow lysates prepared as described above were diluted and plated onto 96-well assay plates to quantify NSP activities as described previously ([Basso et al., 2022]). […] The specific NSP activity in each sample was calculated as the total activity minus the activity in the presence of a specific NSP inhibitor (if used), including elastase inhibitor (Abcam) for NE, sivelestat (Abcam) for PR3, and cathepsin G inhibitor I (Cayman Chemical; Ann Arbor, MI) for CatG. […] A portion of each cell lysate sample was retained for protein quantification using a Pierce™ BCA Protein Assay Kit (Thermo Fisher). […]
# [5] = 5 mg/kg BID, curve fit with free min and max
# [6] = after 8 days of 5 mg/kg BID, curve fit with free min and max
compound,measurement,setting,value
Cn1c(=O)oc2ccc(-c3ccc(C[C@@H](C#N)NC(=O)[C@@H]4CNCCCO4)cc3)cc21 [brensocatib],"Onset: Maximum reduction (plateau), CatG",[1]; [5],97%
same,"Onset: Time to reach 50% reduction, CatG",[1]; [5],2.8 days
same,"Onset: Time to reach max reduction, CatG",[1]; [5],8.1 days
same,Percent change from vehicle CatG,[1]; after 1 day of treatment,−26% (0.0727)
same,Percent change from vehicle CatG,[1]; after 4 days of treatment,−81% (p < 0.0001)
same,Percent change from vehicle CatG,[1]; after 7 days of treatment,−99% (p < 0.0001)
same,Percent change from vehicle CatG,[1]; after 10 days of treatment,−93% (p < 0.0001)
same,Percent change from vehicle CatG,[1]; after 14 days of treatment,−99% (p < 0.0001)
same,"Recovery: Time to reach 50% recovery, PR3",[2]; [6],1.4 days
same,"Recovery: Time to reach 90% recovery, PR3",[2]; [6],5.2 days
same,"Recovery: Time to reach 95% recovery, PR3",[2]; [6],6.2 days
same,"Recovery: Time to reach 100% recovery, PR3",[2]; [6],7.5 days
same,Percent change from vehicle PR3,[2]; 1 day recovery after 8 days of 5 mg/kg BID,−63% (p < 0.0001)
same,Percent change from vehicle PR3,[2]; 3 days recovery after 8 days of 5 mg/kg BID,−28% (p = 0.0024)
same,Percent change from vehicle PR3,[2]; 6 days recovery after 8 days of 5 mg/kg BID,−14% (p = 0.3753)
same,Percent change from vehicle PR3,[2]; 8 days recovery after 8 days of 5 mg/kg BID,+5% (p = 0.9691)
same,Percent change from vehicle PR3,[2]; 10 days recovery after 8 days of 5 mg/kg BID,+16% (p = 0.1549)
same,"Onset: Maximum reduction (plateau), NE",[3]; [5],80%
same,"Onset: Time to reach 50% reduction, NE",[3]; [5],4.3 days
same,"Onset: Time to reach max reduction, NE",[3]; [5],6.4 days
same,Percent change from vehicle NE,[3]; after 1 day of treatment,−28% (p = 0.0826)
same,Percent change from vehicle NE,[3]; after 4 days of treatment,−59% (p < 0.0001)
same,Percent change from vehicle NE,[3]; after 7 days of treatment,−83% (p < 0.0001)
same,Percent change from vehicle NE,[3]; after 10 days of treatment,−76% (p < 0.0001)
same,Percent change from vehicle NE,[3]; after 14 days of treatment,−82% (p < 0.0001)
same,Time to full recovery of NSP activity (visually),[4],6–8 days post final dose
